Experiments:
[1] = molecular target: T1, angiotensin II receptor subtype 1 (AT1) (Oryctolagus cuniculus, UniProt P34976); experiment: Binding assay, angiotensin II receptor subtype 1 (AT1); parameters: species or system rabbit (adrenal glands); conditions: 100 μM, AT1, rabbit adrenal glands
T1 construct: receptor: from adrenal glands in rabbits; from tissue; host or cells: rabbit adrenal glands
T1 sequence (P34976 1-359): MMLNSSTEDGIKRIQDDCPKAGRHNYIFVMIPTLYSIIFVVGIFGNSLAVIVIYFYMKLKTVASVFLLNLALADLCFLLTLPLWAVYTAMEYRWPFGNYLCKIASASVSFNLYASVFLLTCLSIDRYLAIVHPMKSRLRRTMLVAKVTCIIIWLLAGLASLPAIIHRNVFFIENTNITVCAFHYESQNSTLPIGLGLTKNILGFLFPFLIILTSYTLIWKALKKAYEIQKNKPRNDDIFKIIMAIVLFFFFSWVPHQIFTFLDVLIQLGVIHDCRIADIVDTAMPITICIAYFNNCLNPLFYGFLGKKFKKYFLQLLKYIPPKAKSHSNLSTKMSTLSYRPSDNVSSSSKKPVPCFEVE
Description: (§1) In this Example, the affinity to the angiotensin II receptor subtype 1 or subtype 2 was evaluated by a binding assay in accordance with the method described in Biochem. Pharmacol., 33, 4057-4062 (1984).
(§2) Specifically, the measurement of the total binding in the presence of each drug was performed as follows:
(§3) A mixture (final volume=0.25 ml) of a drug in a given concentration (the drug was dissolved in DMSO, and diluted to a double volume with a buffer attached to a drug discovery system to prepare sample for the assay; 0.025 ml), a tracer (0.025 ml), and receptors (0.2 ml) was incubated [in the case of the angiotensin II receptor subtype 1 (AT1), at room temperature for 3 hours, and in the case of the subtype 2 (AT2), at 37° C. for 1 hour]. Then, the reaction mixture was filtered with suction (GF/C filter was used in AT1, and GF/B filter was used in AT2). The filter papers after filtration with suction (the tracer bound to the receptors) were counted by a γ-well counter (ARC-500, Aloka). The non-specific bindings were measured by repeating the above method, except that a large excess amount of a displacer was added. The specific binding of the drug in the given concentration was calculated by subtracting the non-specific binding from the total binding, respectively.
(§4) In AT1 and AT2, the percentages to inhibit the bindings of radioactive ligands (tracer) to receptors by the drugs to be tested (IC50 value of concentration to show 50% inhibition, or binding inhibition % in 100 μM) were measured, using the drugs to be tested and control drugs in the given concentration.

[2] = test system: kidney disease model rats; experiment: Action to depress blood pressure (tail cuff method); format: in vivo, Sprague-Dawley female rats; conditions: systolic, average, 20 mg/kg per os, two days from administration; control (water) 203
Description: The compounds of the present invention and the reference substance were forcedly administered per os to kidney disease model rats, and the action to depress blood pressure was observed. The kidney disease model rats were prepared by ligature of branches of renal artery in accordance with the conventional method, that is, the left hilum renalis of Sprague-Dawley female rats was exposed under anesthesia, and one of four secondary branches of renal artery was left unligated, while the remaining three branches were ligated, respectively. After a week, the hilum renalis (artery, vein, and ureter) of the right kidney were further ligated to thereby prepare the rats whose renal function was lowered to approximately 1/8 of the normal function. Each group consisted of eight rats. The drugs to be tested (20 mg/kg) were administered to each administering group, and only water was administered to control group. After two days from the administration, the systolic blood pressure was measured by the tail cuff method using a blood pressure measuring apparatus (UR5000; Ueda).

[3] = test system: kidney disease model rats; experiment: Action to survival time of kidney diseased animals; format: in vivo, Sprague-Dawley female rats; conditions: 20 mg/kg/day per os, observation eight weeks (upper limit); control 5.0
Description: The kidney disease model rats were prepared as in Example 115. Twenty-five groups (8 rats per group) were prepared in a manner so that there was no major difference between the groups in the serum creatinine value and the urea nitrogen value indicating renal function. The rats in each group were allowed to freely take up feed and water. […] To the rats in the control group, only water was forcedly administered per os every day. If kidney diseases are aggravated, the rat will die of uremia. Thus, the survival time was observed as comprehensive indication of the improvement effect on the kidney diseases. The observation period was eight weeks. Thus if all rats survived, the average survival time is eight weeks and it is an upper limit.

[4] = molecular target: T2, angiotensin II receptor subtype 2 (AT2) (Bos taurus, UniProt G5E6F7); experiment: Binding assay, angiotensin II receptor subtype 2 (AT2); parameters: species or system bovine (cerebellar cortex); conditions: 100 μM, AT2, bovine cerebellar cortex, 37° C. 1 hour; read-out: Binding inhibition % in 100 μm, AT2
T2 construct: receptor: from cerebellar cortex in bovine; from tissue; host or cells: bovine cerebellar cortex
T2 sequence (G5E6F7 1-362): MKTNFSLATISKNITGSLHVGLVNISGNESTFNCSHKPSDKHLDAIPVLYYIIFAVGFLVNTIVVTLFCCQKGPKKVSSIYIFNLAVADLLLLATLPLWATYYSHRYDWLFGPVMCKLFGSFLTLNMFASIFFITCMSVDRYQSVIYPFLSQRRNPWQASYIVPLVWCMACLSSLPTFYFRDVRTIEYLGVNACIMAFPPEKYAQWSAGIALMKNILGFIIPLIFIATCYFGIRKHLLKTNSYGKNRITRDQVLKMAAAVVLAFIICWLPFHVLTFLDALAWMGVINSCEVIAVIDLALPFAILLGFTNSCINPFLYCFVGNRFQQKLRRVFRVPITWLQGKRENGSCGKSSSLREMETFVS
Description: as §1, §2, §3, §4
receptor: from cerebellar cortex in bovine
tracer: ^125 ITyr^4angiotensin II
control drug: angiotensin II (human)
(displacer): angiotensin II (human)

[5] = test system: kidney disease model rats; experiment: Renal function indicatory value (action to kidney diseases); format: in vivo, Sprague-Dawley female rats; conditions: 20 mg/kg/day per os, two weeks; for Creatinine clearance: 24 hours urine, control 0.20; for Creatinine / Urea nitrogen: serum; for Creatinine: control 2.0; for Urea nitrogen: control 100
Description: The kidney disease model rats were prepared as in Example 115. Twenty-five groups (8 rats per group) were sleeked in a manner so that there were no major differences between each group in the serum creatinine value and the urea nitrogen value indicating renal function. The rats in each group were allowed to freely take up feed and water. […] To the rats in the control group, only water was forcedly administered per os every day. After two weeks, 0.2 ml of blood was collected from the carotid artery of the rat under anesthesia, and centrifuged to obtain serum. Using 25 μl of the serum, serum creatinine (Scr) was measured by a creatinine analytical instrument (Beckman). Using 10 μl of the serum, urea nitrogen (BUN) was measured by a BUN analytical instrument (Beckman). Creatinine clearance was evaluated as follows:
After serum creatinine measurement, rats were placed in urinary metabolic cages for 24 hours to collect urine. Urinary creatine concentration (Ucr) was measured by a creatinine analytical instrument, and total volume of urination (Uvol) was also measured. Creatinine clearance (CCr) was calculated by the following formula: [formula]

mice = experiment: Acute toxicity, single oral dose; format: in vivo
Description: Five-week-old ICR female mice (5 mice per group) were bred for acclimation for a week. Then, the compounds of the present invention were dissolved or dispersed in an aqueous solution of 0.5% methylcellulose, and orally administered to the mice in a single dosage (500 mg/kg).

## CCCCC(=O)Nc1ccc(C(=O)N2CCOCC2)cc1NCc1ccc(C(=O)O)cc1 [Compound No. 1, 3-[(4-carboxyphenyl)methylamino]4-valeramidobenzoic acid morpholide]
[1]
  inhibition at 100 µM: 33%
[2]
  Blood pressure: 196 mmHg
[3]
  Average survival time: 7.1 weeks
[4]
  inhibition at 100 µM: 0%
[5]
  Creatinine clearance: 0.34 mL/min
  Creatinine: 1.6 mg/dL
  Urea nitrogen: 75 mg/dL
mice; mice, single oral 500 mg/kg, observed for 6 days, 5 per group
  Number of deaths/number of survivals: 0/5

## CCCCCN(C)c1ccc(C(=O)N2CCOCC2)cc1NCc1ccc(C(=O)O)cc1 [Compound No. 41, 4-(N-n-amyl-N-methyl)amino-3-[(4-carboxyphenyl)methyl]aminobenzoic acid morpholide]
[1]
  inhibition at 100 µM: 26%
[2]
  Blood pressure: 195 mmHg
[3]
  Average survival time: 7.6 weeks
[4]
  inhibition at 100 µM: 0%
[5]
  Creatinine clearance: 0.36 mL/min
  Creatinine: 1.6 mg/dL
  Urea nitrogen: 72 mg/dL
mice; mouse, in vivo, po, 500 mg/kg
  Number of deaths/number of survivals: 0/5

## CCCCCCc1ccc(C(=O)N2CCOCC2)cc1NCc1ccc(C(=O)O)cc1 [Compound No. 75, 3-[(4-carboxyphenyl)methyl]amino-4-hexylbenzoic acid morpholide]
[1]
  inhibition at 100 µM: 15%
[4]
  inhibition at 100 µM: 0%

## CCCCC(=O)N(Cc1ccc(C(=O)O)cc1)c1cccc(C(=O)N2CCOCC2)c1 [Compound No. 90, 3-[N-(4-carboxyphenyl)methyl]valeramidobenzoic acid morpholide]
[1]
  inhibition at 100 µM: 30%
[2]
  Blood pressure: 194 mmHg
[3]
  Average survival time: 7.6 weeks
[4]
  inhibition at 100 µM: 0%
[5]
  Creatinine clearance: 0.38 mL/min
  Creatinine: 1.5 mg/dL
  Urea nitrogen: 70 mg/dL
mice; mouse, in vivo, po, 500 mg/kg
  Number of deaths/number of survivals: 0/5

## CCCCCN(Cc1ccc(C(=O)O)cc1)c1cccc(C(=O)N2CCOCC2)c1 [Compound No. 158, 3-[N-(4-carboxyphenyl)methyl]-n-amylaminobenzoic acid morpholide]
[1]
  inhibition at 100 µM: 18%
[2]
  Blood pressure: 190 mmHg
[3]
  Average survival time: 7.2 weeks
[4]
  inhibition at 100 µM: 0%
[5]
  Creatinine clearance: 0.37 mL/min
  Creatinine: 1.7 mg/dL
  Urea nitrogen: 74 mg/dL
mice; mouse, in vivo, po, 500 mg/kg
  Number of deaths/number of survivals: 0/5

## CCCCC(=O)N(Cc1ccc(C(=O)O)cc1)c1cc(C(=O)N2CCOCC2)ccc1N(C)C [Compound No. 184, 3-N-[[(4-carboxyphenyl)methyl]valeramido]-4-dimethylaminobenzoic acid morpholide]
[1]
  inhibition at 100 µM: 0%
[2]
  Blood pressure: 195 mmHg
[3]
  Average survival time: 7.6 weeks
[4]
  inhibition at 100 µM: 0%
[5]
  Creatinine clearance: 0.38 mL/min
  Creatinine: 1.5 mg/dL
  Urea nitrogen: 70 mg/dL
mice; mouse, in vivo, po, 500 mg/kg
  Number of deaths/number of survivals: 0/5

## CCCNC(=O)N(Cc1ccc(C(=O)O)cc1)c1cc(C(=O)N2CCOCC2)ccc1N(C)C [Compound No. 225]
[1]
  inhibition at 100 µM: 4%
[2]
  Blood pressure: 195 mmHg
[3]
  Average survival time: 7.0 weeks
[4]
  inhibition at 100 µM: 0%
[5]
  Creatinine clearance: 0.25 mL/min
  Creatinine: 1.8 mg/dL
  Urea nitrogen: 73 mg/dL
mice; mouse, in vivo, po, 500 mg/kg
  Number of deaths/number of survivals: 0/5

## CCCCCN(Cc1ccc(C(=O)O)cc1)c1cc(C(=O)N2CCOCC2)ccc1N(C)C [Compound No. 252, 4-dimethylamino-3-[N-(4-carboxyphenyl)methyl]-n-amylaminobenzoic acid morpholide]
[1]
  inhibition at 100 µM: 34%
[2]
  Blood pressure: 200 mmHg
[3]
  Average survival time: 7.0 weeks
[4]
  inhibition at 100 µM: 0%
[5]
  Creatinine clearance: 0.28 mL/min
  Creatinine: 1.7 mg/dL
  Urea nitrogen: 73 mg/dL
mice; mouse, in vivo, po, 500 mg/kg
  Number of deaths/number of survivals: 0/5

## CCCCC(=O)N(Cc1ccc(C(=O)O)cc1)c1cc(C(=O)N2CCOCC2)ccc1C [Compound No. 278, 4-methyl-3-N-[[4-(carboxyphenyl)methyl]valeramido]benzoic acid morpholide]
[1]
  inhibition at 100 µM: 4%
[2]
  Blood pressure: 198 mmHg
[3]
  Average survival time: 7.0 weeks
[4]
  inhibition at 100 µM: 0%
[5]
  Creatinine clearance: 0.36 mL/min
  Creatinine: 1.8 mg/dL
  Urea nitrogen: 73 mg/dL
mice; mouse, in vivo, po, 500 mg/kg
  Number of deaths/number of survivals: 0/5

## CCCCC(=O)N(Cc1ccc(C(=O)O)cc1)c1cc(C(=O)N2CCOCC2)ccc1C(C)C [Compound No. 372, 3-N-[[(4-carboxyphenyl)methyl]valeramido]-4-isopropylbenzoicacid morpholide]
[1]
  inhibition at 100 µM: 2%
[2]
  Blood pressure: 190 mmHg
[3]
  Average survival time: 7.6 weeks
[4]
  inhibition at 100 µM: 0%
[5]
  Creatinine clearance: 0.36 mL/min
  Creatinine: 1.7 mg/dL
  Urea nitrogen: 72 mg/dL
mice; mouse, in vivo, po, 500 mg/kg
  Number of deaths/number of survivals: 0/5

## CCCCC(=O)N(Cc1ccc(C(=O)O)cc1)c1cc(S(=O)(=O)N2CCOCC2)ccc1N(C)C [Compound No. 597, 4-[[3-N-[(4-carboxyphenyl)methyl]valeramido-4-dimethylaminobenzene]sulfonyl]morpholine]
[1]
  inhibition at 100 µM: 0%
[4]
  inhibition at 100 µM: 0%
